Assay results published in the NIST ThermoML archive (doi:10.1016/j.fluid.2015.03.027).
Numbers after ± are expanded uncertainties.

Columns and labels:
[1] = 298.15 K; 101.33 kPa; Liquid; Vibrating tube method
[2] = refractive index (Na D-line) (dimensionless); conditions: 298.15 K; 101.33 kPa; Liquid; Standard Abbe refractometry

Compound	mass density [1]	refractive index [2]
CCCC[n+]1ccc(C)cc1.N#CC(=C=[N-])C#N [1-butyl-4-methylpyridinium tricyanomethanide]	1036.68 ± 1.3 kg/m3	
CC(C)=O [acetone]	785.23 ± 1 kg/m3	1.356 ± 0.0007
CCCCCCC [heptane]	679.48 ± 1 kg/m3	1.38519 ± 0.00073
CCCO [propan-1-ol]	799.52 ± 1 kg/m3	1.38375 ± 0.00072
c1ccncc1 [pyridine]	982.85 ± 1 kg/m3	1.5094 ± 0.00072
